Data published in PubChem BioAssay AID1919007 (Molecular Pharmacology Branch, DTP, NCI, 2023).

System: A498 complex spheroids with HUVEC/MSC, growth
Assay: Anticancer human tumor A498 cell line growth inhibition [AhR];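 also: seven day exposure starting three days after spheroid seeding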;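 as to viability, T/C: luminescence signal used as a surrogate for viable cells; luminescence viability scaled so 100% equals DMSO vehicle wells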
Details: for IC50: curve of first compound; for viability, T/C: stronger effect = lower value
Text: Multicellular complex tumor spheroid response to aryl hydrocarbon receptor antagonists in combination with a variety of drugs and investigational agents in selected tumor cell lines
The current study was undertaken to assess response to aryl hydrocarbon receptor antagonists in combination with standard-of-care drugs and investigational agents in solid tumor complex spheroid models. Complex spheroids include a stromal component modeled by human endothelial cells (HUVEC) and fibroblasts modeled by human mesenchymal stem cells (MSCs). The concentration ranges selected for each drug and investigational agent were based upon clinically achievable concentrations if the clinical Cmax of the agent was known.
Compounds. The drugs and investigational agents: BAY 2416964 (NSC825713), GNF351 (NSC835774), CH-223191 (NSC835775), CPI-455 (NSC825282), aza-TdCyd (NSC777586), decitabine (NSC127716), belinostat (NSC758774), entinostat (NSC756642), pevonedistat (NSC761192), tazemetostat (NSC777109), talazoparib (NSC765396), olaparib (NSC753686), selinexor (NSC780203), nedisertib (M3814, NSC802822), bortezomib (NSC756655), venetoclax (NSC766270), doxorubicin (NSC123127), elimusertib (BAY189344, NSC800525), ceralasertib (AZD6738, NSC777638), TAK-243 (NSC785004), alisertib (NSC759677), etoposide (NSC141540), topotecan (NSC609699), eribulin (NSC707389), gemcitabine (NSC613327), carboplatin (NSC241240), cisplatin (NSC119875), and SN-38 (NSC673596) were obtained from the National Cancer Institute (NCI) Developmental Therapeutics Program Chemical Repository (32). The FDA-approved anticancer drug set is available from the Developmental Therapeutics Program at https://dtp.cancer.gov/organization/dscb/obtaining/available plates.htm. […] The stock solutions were prepared in dimethyl sulfoxide (DMSO, Sigma-Aldrich, St. Louis, MO, cat. D2650), except for the platinum compounds which were prepared in saline (Quality Biological, Gaithersburg, MD, cat. 114-055-101), at 800-fold the tested concentration and stored at -70 degrees C prior to their use. All drugs and investigational agents were tested over a range starting from a high concentration at or near the clinical Cmax and decreasing in half-log increments. If the clinical Cmax for an agent had not been determined, the highest concentration tested was 10 microM (Table 1).
Cell Culture. All cells were maintained in an incubator at 37 degrees C and 5% CO2 with 95% humidity. The PDC lines were cultured according to standard operating procedures established by the NCI PDMR (https://pdmr.cancer.gov). Briefly, all PDCs were thawed and cultured in Matrigel-coated flasks prepared with a working solution of 1X Ham's F-12 nutrient mix, without supplementation (Invitrogen, Waltham, MA, cat. 11765054), 100 U/mL penicillin-streptomycin (Invitrogen, cat. 15140122), and 2.5% Matrigel (Corning Inc., Corning, NY, cat. 354248) for the first three passages. All PDCs were cultured in complete DMEM/F-12 media containing advanced DMEM/F-12 (Invitrogen, cat. 12634028), 4.9% defined fetal bovine serum, heat inactivated (HyClone Laboratories Inc., Logan, UT, cat. SH30070.03HI), 389 ng/mL hydrocortisone (Sigma-Aldrich, cat. H4001), 9.7 ng/mL human EGF recombinant protein (Invitrogen, cat. PHG0313), 23.4 microg/mL adenine (Sigma-Aldrich, cat. A2786), 97.3 U/mL penicillin-streptomycin (Invitrogen, cat. 15140122), 1.9 mM L-glutamine (Invitrogen, cat. 25030081), and 9.7 microM Y-27632 dihydrochloride (Tocris Bioscience, Bristol, United Kingdom, cat. 1254). The PDCs were cultured in complete DMEM/F12 media without 10 microM Y-27632 dihydrochloride for at least two passages prior to the screen. The established cell lines NCI-H1341 and […] were cultured in DMEM/F-12, HEPES (Invitrogen, cat. 11330032), 5% defined fetal bovine serum (HyClone Laboratories Inc., cat. SH30070.03), ITS premix universal culture supplement [insulin (5 microg/mL), transferrin (5 microg/mL), and selenious acid (5 ng/mL)] […]

[1] = second compound 0.1 µM, first compound 0.00949 µM
[2] = second compound 0.1 µM, first compound 0.03 µM
[3] = second compound 0.1 µM, first compound 0.0949 µM
[4] = second compound 0.1 µM, first compound 0.3 µM
[5] = second compound 0.1 µM, first compound 0.949 µM
[6] = second compound 0.1 µM, first compound 3 µM
[7] = second compound 0.316 µM, first compound 0.00949 µM
[8] = second compound 0.316 µM, first compound 0.03 µM
[9] = second compound 0.316 µM, first compound 0.0949 µM
[10] = second compound 0.316 µM, first compound 0.3 µM
[11] = second compound 0.316 µM, first compound 0.949 µM
[12] = second compound 0.316 µM, first compound 3 µM
[13] = second compound 1 µM, first compound 0.00949 µM
[14] = second compound 1 µM, first compound 0.03 µM
[15] = second compound 1 µM, first compound 0.0949 µM
[16] = second compound 1 µM, first compound 0.3 µM
[17] = second compound 1 µM, first compound 0.949 µM
[18] = second compound 1 µM, first compound 3 µM
[19] = second compound 3.16 µM, first compound 0.00949 µM
[20] = second compound 3.16 µM, first compound 0.03 µM
[21] = second compound 3.16 µM, first compound 0.0949 µM
[22] = second compound 3.16 µM, first compound 0.3 µM
[23] = second compound 3.16 µM, first compound 0.949 µM
[24] = second compound 3.16 µM, first compound 3 µM
[25] = second compound 10 µM, first compound 0.00949 µM
[26] = second compound 10 µM, first compound 0.03 µM
[27] = second compound 10 µM, first compound 0.0949 µM
[28] = second compound 10 µM, first compound 0.3 µM
[29] = second compound 10 µM, first compound 0.949 µM
[30] = second compound 10 µM, first compound 3 µM

O=C(C=Cn1cnc(-c2cc(C(F)(F)F)cc(C(F)(F)F)c2)n1)NNc1cnccn1 + Cc1ccccc1N=Nc1ccc(NC(=O)c2ccnn2C)c(C)c1
IC50 (second compound 0.1 µM): 97.1 nM
IC50 (second compound 0.316 µM): 55.1 nM
IC50 (second compound 1 µM): 51.9 nM
IC50 (second compound 3.16 µM): 43.5 nM
IC50 (second compound 10 µM): 61.8 nM
viability, T/C [1]: 88.7%
viability, T/C [2]: 77.2%
viability, T/C [3]: 47.9%
viability, T/C [4]: 30.3%
viability, T/C [5]: 19.8%
viability, T/C [6]: 13.3%
viability, T/C [7]: 74.7%
viability, T/C [8]: 62.4%
viability, T/C [9]: 39.1%
viability, T/C [10]: 21.9%
viability, T/C [11]: 19.1%
viability, T/C [12]: 16.2%
viability, T/C [13]: 56.9%
viability, T/C [14]: 75.9%
viability, T/C [15]: 31.9%
viability, T/C [16]: 17.9%
viability, T/C [17]: 17.6%
viability, T/C [18]: 20.2%
viability, T/C [19]: 70.5%
viability, T/C [20]: 62%
viability, T/C [21]: 24.6%
viability, T/C [22]: 29.8%
viability, T/C [23]: 21.4%
viability, T/C [24]: 19.4%
viability, T/C [25]: 73.8%
viability, T/C [26]: 68.4%
viability, T/C [27]: 37.8%
viability, T/C [28]: 29.6%
viability, T/C [29]: 20.3%
viability, T/C [30]: 18.8%

CCN(c1cc(-c2ccc(CN3CCOCC3)cc2)cc(C(=O)NCc2c(C)cc(C)[nH]c2=O)c1C)C1CCOCC1 + Cc1ccccc1N=Nc1ccc(NC(=O)c2ccnn2C)c(C)c1
IC50 (second compound 0.1 µM): > 3000 nM
IC50 (second compound 0.316 µM): > 3000 nM
IC50 (second compound 1 µM): > 3000 nM
IC50 (second compound 3.16 µM): > 3000 nM
IC50 (second compound 10 µM): > 3000 nM
viability, T/C [1]: 92.6%
viability, T/C [2]: 96.8%
viability, T/C [3]: 94.3%
viability, T/C [4]: 89.7%
viability, T/C [5]: 93.1%
viability, T/C [6]: 98.4%
viability, T/C [7]: 95.4%
viability, T/C [8]: 98.9%
viability, T/C [9]: 98.2%
viability, T/C [10]: 96.8%
viability, T/C [11]: 96.4%
viability, T/C [12]: 104%
viability, T/C [13]: 91.3%
viability, T/C [14]: 92.9%
viability, T/C [15]: 90.8%
viability, T/C [16]: 91.2%
viability, T/C [17]: 85.2%
viability, T/C [18]: 91.6%
viability, T/C [19]: 86.7%
viability, T/C [20]: 92.6%
viability, T/C [21]: 91%
viability, T/C [22]: 89.2%
viability, T/C [23]: 87.7%
viability, T/C [24]: 86.3%
viability, T/C [25]: 95.6%
viability, T/C [26]: 91%
viability, T/C [27]: 95%
viability, T/C [28]: 89.5%
viability, T/C [29]: 92.5%
viability, T/C [30]: 96.3%
